According to BindingDB's records for doi:10.1016/j.bmc.2012.08.006 (Chungnam National University, 2012):

Test: Inhibition of IL-5 in mouse Y16 cells after 48 hrs by WST1 assay

| Compound | IC50 [µM] |
| --- | --- |
| O=c1c(CN(CCO)Cc2ccncc2)coc2cccc(OCC3CCCCC3)c12 | 14.2 |
| O=c1c(CN(CCO)CC2CCCCC2)coc2cccc(OCC3CCCCC3)c12 | 12.4 |
| CN(CCO)Cc1coc2cccc(OCC3CCCCC3)c2c1=O | 30.3 |
| CCN(CCO)Cc1coc2cccc(OCC3CCCCC3)c2c1=O | 19.5 |
| Cc1ccc(CN(CCO)Cc2coc3cccc(OCC4CCCCC4)c3c2=O)cc1 | 9.4 |
| CC(C)N(CCO)Cc1coc2cccc(OCC3CCCCC3)c2c1=O | 10.2 |
| COc1ccc(CN(CCO)Cc2coc3cccc(OCC4CCCCC4)c3c2=O)cc1 | 9 |
| O=c1c(CN(CCO)c2ccccc2)coc2cccc(OCC3CCCCC3)c12 | 14.3 |
| O=c1c(CN(CCO)Cc2ccc(O)cc2)coc2cccc(OCC3CCCCC3)c12 | 9.1 |
| O=c1c(CN(CCO)C2CCCCC2)coc2cccc(OCC3CCCCC3)c12 | 9 |
| O=c1c(CN(CCO)Cc2ccccc2)coc2cccc(OCC3CCCCC3)c12 | 16.1 |
| CCCCN(CCO)Cc1coc2cccc(OCC3CCCCC3)c2c1=O | 9.2 |
| CCCN(CCO)Cc1coc2cccc(OCC3CCCCC3)c2c1=O | 15.4 |
| O=c1c(CN(CCO)Cc2ccc(Cl)cc2)coc2cccc(OCC3CCCCC3)c12 | 10.3 |
